The target of this assay is T1, ERα (Homo sapiens, UniProt P03372).
T1 construct: host or cells: MCF7
T1 sequence (P03372 1-595): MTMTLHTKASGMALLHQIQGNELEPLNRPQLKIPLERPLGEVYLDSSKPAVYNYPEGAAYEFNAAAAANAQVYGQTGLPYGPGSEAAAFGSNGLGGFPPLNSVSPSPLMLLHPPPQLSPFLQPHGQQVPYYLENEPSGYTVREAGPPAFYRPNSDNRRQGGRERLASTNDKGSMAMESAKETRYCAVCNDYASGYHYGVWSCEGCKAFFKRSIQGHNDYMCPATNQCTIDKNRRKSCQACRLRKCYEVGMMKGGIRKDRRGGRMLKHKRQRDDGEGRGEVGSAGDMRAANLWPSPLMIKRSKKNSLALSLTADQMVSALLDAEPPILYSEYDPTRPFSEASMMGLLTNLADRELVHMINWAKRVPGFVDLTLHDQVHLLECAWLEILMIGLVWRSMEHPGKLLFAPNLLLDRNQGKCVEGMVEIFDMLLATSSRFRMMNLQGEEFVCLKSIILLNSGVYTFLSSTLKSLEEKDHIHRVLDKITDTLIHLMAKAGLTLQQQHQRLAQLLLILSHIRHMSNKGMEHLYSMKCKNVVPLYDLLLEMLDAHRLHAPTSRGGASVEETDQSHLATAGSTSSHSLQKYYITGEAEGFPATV
In words: Estrogen receptor degradation activity: breast cancer cell ERα in cell western assay (MCF7 cells). Format: cell-based. To be noted: for % Degradation At 0.3 μM: 4 hours, relative to fulvestrant 0.1 μM positive control; for DC50: 4 hours post compound addition, concentration which degrades 50% of the estrogen receptor, read-out: Degradation IC50. The method, then:
Test: Estrogen Receptor Degradation Activity Said test involves measuring the in vitro degradation activity of the compounds of the Table 1a. The measurements of the degradation activities were made using a breast cancer cell ERα in cell western assay as described hereunder. MCF7 cells (ATCC) were seeded in 384 wells microplate (collagen coated) at a concentration of 10000 cells/30 μL per well in red phenol free MEM alpha medium (invitrogen) containing 5% charcoal dextran striped FBS. The following day, 9 points serial 1:5 dilution of each compound was added to the cells in 2.5p L at final concentrations ranging from 0.3-0.0000018 μM (in table 2), or 0.1 μM for fulvestrant (using as positive control). At 4 hours post compound addition the cells were fixed by adding 25 μL of formalin (final concentration 5% formalin containing 0.1% triton) for 10 minutes at room temperature and then washed twice with PBS. Then, 50 μL of LI-COR blocking buffer containing 0.1% Triton was added to plate for 30 minutes at room temperature. LI-COR blocking buffer was removed and cells were incubated overnight at cold room with 50 μL anti-ER rabbit monoclonal antibody (Thermo scientific MA1-39540) diluted at 1:1000 in LI-COR blocking buffer containing 0.1% tween-20. Wells which were treated with blocking buffer but no antibody were used as background control. Wells were washed twice with PBS (0.1% tween-20) and incubated at 37° C. for 60 minutes in LI-COR (0.1% tween-20) containing goat anti-rabbit antibody Alexa 488 (1:1000) and Syto-64 a DNA dye (2 μM final concentration). Cells were then washed 3 times in PBS and scanned in ACUMEN explorer (TTP-Labtech). Integrated intensities in the green fluorescence and red fluorescence were measured to determine the levels of ERα and DNA respectively. The degradation activity with respect to estrogen receptors in this test is given by the concentration which degrades 50% of the estrogen receptor (or IC50) in nM. […] DMSO−fulvestrant)).

Turning to `O=C(O)c1ccc2c(c1)CCCC(c1cccc(Cl)c1C(F)(F)F)=C2c1ccc(CC2CN(CCC(F)F)C2)cc1` [Example 280, 8-(3-chloro-2-(trifluoromethyl)phenyl)-9-(4-((1-(3,3-difluoropropyl)azetidin-3-yl)methyl)phenyl)-6,7-dihydro-5H-benzo[7]annulene-3-carboxylic acid], the “% Degradation At 0.3 μM” value worked out at 86% and the DC50 worked out at 0.3 nM.
For the compound `COc1ccc(C2=C(c3ccc(CC4CN(CCCF)C4)cc3)c3ccc(C(=O)O)cc3CCC2)cn1` [Example 18, 9-(4-((1-(3-fluoropropyl)azetidin-3-yl)methyl)phenyl)-8-(6-methoxypyridin-3-yl)-6,7-dihydro-5H-benzo[7]annulene-3-carboxylic acid], the “% Degradation At 0.3 μM” value is listed as 95% and the DC50 came out at 1.6 nM.
On to `Oc1c(F)cc2c(c1F)CCCC(c1ccc(Cl)cc1Cl)=C2c1ccc(CC2CN(CCCF)C2)cc1` [Example 305, 8-(2,4-dichlorophenyl)-2,4-difluoro-9-(4-((1-(3-fluoropropyl)azetidin-3-yl)methyl)phenyl)-6,7-dihydro-5H-benzo[7]annulen-3-ol], for which the “% Degradation At 0.3 μM” value is 85% and the DC50 is 1.2 nM.
As for `Cl.O=C(O)c1ccc2c(c1)CCC(c1ccc(Cl)cc1Cl)=C2c1ccc(CC2CN(CCCF)C2)cc1` [Example 262, 6-(2,4-Dichlorophenyl)-5-(4-((1-(3-fluoropropyl)azetidin-3-yl)methyl)phenyl)-7,8-dihydronaphthalene-2-carboxylic Acid Hydrochloride], the “% Degradation At 0.3 μM” value was 91% and the DC50 worked out at 1.6 nM.
With `O=C(O)c1ccc2c(c1)CCCC(c1ccc(Cl)cc1Cl)=C2c1ccc(CC2CN(CCC(F)(F)F)C2)cc1` [Example 261, 8-(2,4-dichlorophenyl)-9-(4-((1-(3,3,3-trifluoropropyl)azetidin-3-yl)methyl)phenyl)-6,7-dihydro-5H-benzo[7]annulene-3-carboxylic acid], the “% Degradation At 0.3 μM” value was 89% and the DC50 turned out to be 0.8 nM.
In the case of `Cc1c(C2=C(c3ccc(CC4CN(CCC(F)(F)F)C4)cc3)c3ccc(C(=O)O)cc3CCC2)cccc1C(F)(F)F` [Example 256, 8-(2-methyl-3-(trifluoromethyl)phenyl)-9-(4-((1-(3,3,3-trifluoropropyl)azetidin-3-yl)methyl)phenyl)-6,7-dihydro-5H-benzo[7]annulene-3-carboxylic acid], the “% Degradation At 0.3 μM” value is listed as 82% and the DC50 was 1 nM.
Consider `Cc1c(C2=C(c3ccc(CC4CN(CCCF)C4)cc3)c3ccc(C(=O)O)cc3CCC2C)cccc1C(F)(F)F` (racemic) [Example 310, 9-(4-((1-(3-fluoropropyl)azetidin-3-yl)methyl)phenyl)-7-methyl-8-(2-methyl-3-(trifluoromethyl)phenyl)-6,7-dihydro-5H-benzo[7]annulene-3-carboxylic acid], for which the “% Degradation At 0.3 μM” value is on record as 85% and the DC50 amounted to 0.4 nM.
With `COc1nc(C(F)(F)F)ccc1C1=C(c2ccc(CC3CN(CCCF)C3)cc2)c2ccc(C(=O)O)cc2CCC1` [Example 268, 9-(4-((1-(3-fluoropropyl)azetidin-3-yl)methyl)phenyl)-8-(2-methoxy-6-(trifluoromethyl)pyridin-3-yl)-6,7-dihydro-5H-benzo[7]annulene-3-carboxylic acid], the “% Degradation At 0.3 μM” value came to 89% and the DC50 is 0.5 nM.
With `O=C(O)c1ccc2c(c1)CCCC(c1cc(F)cc(F)c1)=C2c1ccc(CC2CN(CCCF)C2)cc1` [Example 266, 8-(3,5-difluorophenyl)-9-(4-((1-(3-fluoropropyl)azetidin-3-yl)methyl)phenyl)-6,7-dihydro-5H-benzo[7]annulene-3-carboxylic acid], the “% Degradation At 0.3 μM” value came to 90% and the DC50 turned out to be 0.3 nM.
In the same order, the values of `FCCCN1CC(Cc2ccc(C3=C(c4ccccc4Cl)CCCc4ccccc43)cc2)C1` [Example 304, 3-(4-(8-(2-chlorophenyl)-6,7-dihydro-5H-benzo[7]annulen-9-yl)benzyl)-1-(3-fluoropropyl)azetidine] are 89% and 17.4 nM.
Consider `Oc1ccc2c(c1)CCCC(c1ccc(Cl)cc1Cl)=C2c1ccc(CC2CN(CCCF)C2)cc1` [Example 254, 8-(2,4-dichlorophenyl)-9-(4-((1-(3-fluoropropyl)azetidin-3-yl)methyl)phenyl)-6,7-dihydro-5H-benzo[7]annulen-3-ol], for which the “% Degradation At 0.3 μM” value came to 85% and the DC50 turned out to be 1.4 nM.
`O=C(O)c1ccc2c(c1)CCCC(c1cccc(Cl)c1C(F)(F)F)=C2c1ccc(CC2CN(CCC(F)(F)F)C2)cc1` [Example 259, 8-(3-chloro-2-(trifluoromethyl)phenyl)-9-(4-((1-(3,3,3-trifluoropropyl)azetidin-3-yl)methyl)phenyl)-6,7-dihydro-5H-benzo[7]annulene-3-carboxylic acid]: the “% Degradation At 0.3 μM” value was determined as 87% and the DC50 came out at 0.4 nM.
In the same order, the values of `O=C(O)c1ccc2c(c1)CCCC(c1ccc(F)cc1Cl)=C2c1ccc(CC2(F)CN(CCCF)C2)cc1` [Example 242, 8-(2-chloro-4-fluorophenyl)-9-(4-((3-fluoro-1-(3-fluoropropyl)azetidin-3-yl)methyl)phenyl)-6,7-dihydro-5H-benzo[7]annulene-3-carboxylic acid] are 78% and 1.7 nM.
On to `O=C(O)c1ccc2c(c1)CCCC(C1CCOCC1)=C2c1ccc(CC2CN(CCCF)C2)cc1` [Example 38, 9-(4-((1-(3-fluoropropyl)azetidin-3-yl)methyl)phenyl)-8-(tetrahydro-2H-pyran-4-yl)-6,7-dihydro-5H-benzo[7]annulene-3-carboxylic acid], for which the “% Degradation At 0.3 μM” value is recorded as 83% and the DC50 stood at 7 nM.
Consider `CC1CCc2cc(C(=O)O)ccc2C(c2ccc(CC3CN(CCCF)C3)cc2)=C1c1ccc(F)cc1` (racemic) [Example 325, 8-(4-fluorophenyl)-9-(4-((1-(3-fluoropropyl)azetidin-3-yl)methyl)phenyl)-7-methyl-6,7-dihydro-5H-benzo[7]annulene-3-carboxylic acid], for which the “% Degradation At 0.3 μM” value was determined as 89% and the DC50 is 0.5 nM.
On the same counts, the results for `Cc1c(F)cccc1C1=C(c2ccc(CC3CN(CCCF)C3)cc2)c2ccc(C(=O)O)cc2CCC1` [Example 28, 8-(3-fluoro-2-methylphenyl)-9-(4-((1-(3-fluoropropyl)azetidin-3-yl)methyl)phenyl)-6,7-dihydro-5H-benzo[7]annulene-3-carboxylic acid] are 93% and 0.4 nM.
As to `O=C(O)c1ccc2c(c1)CCCC(C1CC3(C1)CC(F)(F)C3)=C2c1ccc(CC2CN(CCCF)C2)cc1` [Example 51, 8-(6,6-difluorospiro[3.3]heptan-2-yl)-9-(4-((1-(3-fluoropropyl)azetidin-3-yl)methyl)phenyl)-6,7-dihydro-5H-benzo[7]annulene-3-carboxylic acid], the “% Degradation At 0.3 μM” value was 89% and the DC50 stood at 0.7 nM.
In the case of `Cl.O=C(O)c1ccc2c(c1)CCCC(c1ccc(Cl)c(Cl)c1)=C2c1ccc(CC2CN(CCCF)C2)cc1` [Example 207, 8-(3,4-dichlorophenyl)-9-(4-((1-(3-fluoropropyl)azetidin-3-yl)methyl)phenyl)-6,7-dihydro-5H-benzo[7]annulene-3-carboxylic acid hydrochloride], the “% Degradation At 0.3 μM” value was found to be 92% and the DC50 amounted to 1.1 nM.

Values taken from patent publication US12595230B2, “Substituted 6,7-dihydro-5H-benzo[7]annulene compounds and their derivatives, processes for their preparation and therapeutic uses thereof” (Sanofi, priority 2020, dated 2026).
